Patent publication US20120082658A1, “Methods for the Treatment of Allergic Diseases” (VentiRx Pharmaceuticals, Inc., priority 2010, published 2012)
Read-outs that look alike come from different tables or passages of the source.

Tests used:
Format in all cases: cell-based
[1] = target: T1, TLR2 (Homo sapiens, UniProt O60603); assay: HEK293 cells transfected with human TLR2, NF-κB driven reporter; conditions: concentration up to 25 uM
T1 construct: expressed in transfected cells; host or cells: HEK293
T1 sequence (O60603 21-784): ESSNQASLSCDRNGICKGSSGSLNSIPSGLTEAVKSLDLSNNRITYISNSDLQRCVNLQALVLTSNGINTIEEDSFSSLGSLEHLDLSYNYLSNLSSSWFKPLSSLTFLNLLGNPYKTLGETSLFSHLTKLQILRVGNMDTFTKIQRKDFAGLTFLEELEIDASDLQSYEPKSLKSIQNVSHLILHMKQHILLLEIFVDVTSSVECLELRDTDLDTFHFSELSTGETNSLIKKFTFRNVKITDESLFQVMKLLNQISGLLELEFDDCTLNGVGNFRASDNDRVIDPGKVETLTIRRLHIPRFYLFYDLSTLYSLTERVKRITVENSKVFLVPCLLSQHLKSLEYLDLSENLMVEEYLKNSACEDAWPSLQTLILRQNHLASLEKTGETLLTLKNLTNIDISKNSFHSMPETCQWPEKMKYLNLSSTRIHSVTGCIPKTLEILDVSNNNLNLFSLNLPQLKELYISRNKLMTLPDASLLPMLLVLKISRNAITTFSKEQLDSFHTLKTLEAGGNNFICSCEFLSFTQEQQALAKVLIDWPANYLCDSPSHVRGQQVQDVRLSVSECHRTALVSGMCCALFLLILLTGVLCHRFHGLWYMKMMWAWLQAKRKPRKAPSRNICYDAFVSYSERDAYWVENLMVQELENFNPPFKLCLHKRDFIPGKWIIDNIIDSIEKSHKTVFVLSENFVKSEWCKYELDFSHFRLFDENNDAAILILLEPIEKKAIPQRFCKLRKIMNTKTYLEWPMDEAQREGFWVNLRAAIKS
Experimental: (§1) FIG. 8 is two graphs depicting the potency and selectivity of VTX-378 for TLR8. The half-maximal effective concentration (EC50) for VTX-378 activation of TLR8 and TLR7 was assessed in peripheral blood mononuclear cells (PBMCs) by the amount of secreted TNFα (A) and by the activity of NF-κB (B) from 15 healthy donors and also in HEK293 cells transfected with various human TLRs.
(§2) Preclinical studies were performed with VTX-378, the active pharmaceutical ingredient in VTX-1463. The specificity of VTX-378 for human TLR8 relative to other TLRs was assessed in transfected Human Embryonic Kidney 293 (HEK293) cells engineered to express individual TLRs (2-9) via transfection, and assessed using an NF-κB driven reporter system. […] The pharmacologic effects of VTX-378 were characterized in vitro using isolated human peripheral blood mononuclear cells (PBMCs).

[2] = target: T2, TLR6 (Homo sapiens, UniProt Q9Y2C9); assay: HEK293 cells transfected with human TLR6, NF-κB driven reporter; conditions: concentration up to 25 uM
T2 construct: expressed in transfected cells; host or cells: HEK293
T2 sequence (Q9Y2C9 32-796): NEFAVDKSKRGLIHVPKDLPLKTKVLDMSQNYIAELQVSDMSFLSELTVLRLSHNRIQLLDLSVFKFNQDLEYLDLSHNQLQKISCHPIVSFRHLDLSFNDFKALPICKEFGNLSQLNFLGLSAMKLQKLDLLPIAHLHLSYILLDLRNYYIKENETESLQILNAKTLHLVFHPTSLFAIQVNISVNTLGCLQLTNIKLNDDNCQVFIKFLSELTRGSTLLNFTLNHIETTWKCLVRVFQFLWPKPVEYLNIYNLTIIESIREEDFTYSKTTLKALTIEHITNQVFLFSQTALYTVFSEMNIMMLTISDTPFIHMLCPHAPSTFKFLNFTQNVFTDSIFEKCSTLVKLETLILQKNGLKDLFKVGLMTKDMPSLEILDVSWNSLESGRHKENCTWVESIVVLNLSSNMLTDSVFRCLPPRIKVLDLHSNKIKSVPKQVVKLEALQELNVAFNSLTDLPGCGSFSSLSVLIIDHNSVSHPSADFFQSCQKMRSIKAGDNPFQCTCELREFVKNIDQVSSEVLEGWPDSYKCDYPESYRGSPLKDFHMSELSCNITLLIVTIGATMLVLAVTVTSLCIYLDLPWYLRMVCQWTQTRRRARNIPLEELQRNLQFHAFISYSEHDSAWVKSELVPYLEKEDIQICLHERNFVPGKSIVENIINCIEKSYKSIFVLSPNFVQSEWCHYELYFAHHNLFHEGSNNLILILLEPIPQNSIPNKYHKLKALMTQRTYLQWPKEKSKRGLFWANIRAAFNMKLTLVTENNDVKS
Experimental: as §1, §2

[3] = target: T3, TLR9 (Homo sapiens, UniProt Q9NR96); assay: HEK293 cells transfected with human TLR9, NF-κB driven reporter; conditions: concentration up to 25 uM
T3 construct: expressed in transfected cells; host or cells: HEK293
T3 sequence (Q9NR96 26-1032): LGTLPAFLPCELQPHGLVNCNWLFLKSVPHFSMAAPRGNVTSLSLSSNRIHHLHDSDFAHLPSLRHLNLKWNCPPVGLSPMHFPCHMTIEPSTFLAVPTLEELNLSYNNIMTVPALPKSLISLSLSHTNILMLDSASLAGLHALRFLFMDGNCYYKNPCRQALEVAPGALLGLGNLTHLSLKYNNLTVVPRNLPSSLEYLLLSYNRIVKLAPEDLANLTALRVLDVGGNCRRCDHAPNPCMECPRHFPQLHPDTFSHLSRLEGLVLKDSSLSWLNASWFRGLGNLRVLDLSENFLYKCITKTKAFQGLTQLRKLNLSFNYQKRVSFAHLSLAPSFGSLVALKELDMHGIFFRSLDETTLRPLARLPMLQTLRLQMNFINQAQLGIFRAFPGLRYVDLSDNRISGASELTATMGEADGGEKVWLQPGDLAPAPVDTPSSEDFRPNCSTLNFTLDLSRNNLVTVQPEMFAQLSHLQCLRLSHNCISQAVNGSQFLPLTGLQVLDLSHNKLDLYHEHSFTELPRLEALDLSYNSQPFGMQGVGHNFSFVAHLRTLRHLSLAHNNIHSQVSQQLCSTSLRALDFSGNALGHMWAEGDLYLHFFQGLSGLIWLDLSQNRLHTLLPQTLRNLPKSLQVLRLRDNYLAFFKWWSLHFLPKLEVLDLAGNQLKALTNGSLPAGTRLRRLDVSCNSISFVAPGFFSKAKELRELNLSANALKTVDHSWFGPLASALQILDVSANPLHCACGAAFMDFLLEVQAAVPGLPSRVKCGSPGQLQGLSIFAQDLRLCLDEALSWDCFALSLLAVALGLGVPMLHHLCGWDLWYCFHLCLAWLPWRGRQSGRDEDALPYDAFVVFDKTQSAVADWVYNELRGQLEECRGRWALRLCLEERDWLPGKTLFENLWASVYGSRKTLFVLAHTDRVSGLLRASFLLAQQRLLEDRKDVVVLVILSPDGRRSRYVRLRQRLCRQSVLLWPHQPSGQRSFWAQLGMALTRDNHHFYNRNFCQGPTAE
Experimental: as §1, §2

[4] = tested on: human peripheral blood mononuclear cells (PBMCs); assay: Cytokine production in isolated human PBMCs; conditions: for EC50: Homo sapiens, PBMC
Experimental: as §2

Structure (SMILES): CCCN(CCC)C(=O)C1=Cc2ccc(-c3ccc(C(=O)N4CCCC4)cc3)cc2N=C(N)C1 [VTX-378]
- activity on TLR2 [1]: no detectable activity
- activity on TLR6 [2]: no detectable activity
- activity on TLR9 [3]: no detectable activity
- EC50 ([4]; analyte IL-10, read-out: EC50, IL-10 production): 120 nM
- EC50 ([4]; analyte IL-12p40, read-out: EC50, IL-12p40 production): 230 nM
- EC50 ([4]; analyte IL-12p70, read-out: EC50, IL-12p70 production): 220 nM
- Mean Mediator Level ± SEM, IL-10 ([4]; VTX-378 1.6 uM): 72 ± 29 pg/mL
- Mean Mediator Level ± SEM, IL-12p70 ([4]; VTX-378 1.6 uM): 38 ± 10 pg/mL
- Mean Mediator Level ± SEM, IL-12p40 ([4]; VTX-378 1.6 uM, *p < 0.05 to Control): 140 ± 32* pg/mL
- production of Th-1 cytokines and chemokines including IL-12, IFN, MCP-1 and MIP-1β ([4]; incubation with isolated human PBMCs): stimulated PBMCs to produce
